Literature values in patent publication US12409146B2, “Solid lipid nanoparticle for intracellular release of active substances and method for production the same” (LEAD BIOTHERAPEUTICS LTD, priority 2017, dated 2025).
≈ marks a conversion by molar mass, not a printed value.

water solubility: 5.23 µg/mL (≈ 10 µM)
SMILES: C[C@@H]1C[C@H]2[C@@H]3CCC4=CC(=O)C=C[C@]4(C)[C@@]3(Cl)[C@@H](O)C[C@]2(C)[C@@]1(OC(=O)c1ccco1)C(=O)CCl [Mometasone furoate]
